The results in this text go back to patent US20240308976A1, “COMPOUNDS THAT MEDIATE PROTEIN DEGRADATION AND USES THEREOF” (Monte Rosa Therapeutics, Inc., priority 2021, published 2024).

Structures are written as SMILES.

In one test the target is CRBN-DDB1 (Homo sapiens, UniProt Q96SW2). Nature of the test: Compound binding to CRBN by HTRF assay. The following applies: CRBN-DDB1 2.5 nM, Cy5-Thalidomide 100 nM, 30 min at ambient temperature; read-out: HTRF Class (Cereblon binding, HTRF IC50). An outline of the steps:
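Cy5-thalidomide (100 nM) displacement from His-tagged CRBN-DDB1 (2.5 nM) read by terbium-cryptate HTRF (665/620 nm), in 20 mM HEPES, 20 mM NaCl, 0.2 mM TCEP, 0.2 mM EDTA, 0.005% Tween20. Compounds tested as 10-point 1:3 series, 30 min at ambient temperature. Signal normalised to DMSO and lenalidomide controls; IC50 fitted, Ki by Cheng-Prusoff.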
A general note: Time-resolved FRET reads energy transfer from a long-lived donor to a nearby acceptor.

Another test addresses T1, GSPT1 (Homo sapiens, UniProt P15170+Q96SW2).
T1 construct: CAL-51 cells were purchased from DSMZ (cat. Number ACC302); host or cells: CAL-51
Nature of the test: Immunofluorescence assay for activity to degrade GSPT1 in CAL-51 cells. It counts as cell-based. The following applies: 6 h treatment, read-out: IF Class (GSPT1 degradation, DC50). Summed up: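 CAL-51 cells treated 6 h with compound (30 μM to 0.1 nM), fixed, immunostained for GSPT1 with DAPI and phalloidin counterstains, imaged by high-content microscopy. Mean per-cell GSPT1 intensity normalized to controls; DC50 by non-linear regression.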

Sequence of CRBN-DDB1 (Q96SW2 whole entry): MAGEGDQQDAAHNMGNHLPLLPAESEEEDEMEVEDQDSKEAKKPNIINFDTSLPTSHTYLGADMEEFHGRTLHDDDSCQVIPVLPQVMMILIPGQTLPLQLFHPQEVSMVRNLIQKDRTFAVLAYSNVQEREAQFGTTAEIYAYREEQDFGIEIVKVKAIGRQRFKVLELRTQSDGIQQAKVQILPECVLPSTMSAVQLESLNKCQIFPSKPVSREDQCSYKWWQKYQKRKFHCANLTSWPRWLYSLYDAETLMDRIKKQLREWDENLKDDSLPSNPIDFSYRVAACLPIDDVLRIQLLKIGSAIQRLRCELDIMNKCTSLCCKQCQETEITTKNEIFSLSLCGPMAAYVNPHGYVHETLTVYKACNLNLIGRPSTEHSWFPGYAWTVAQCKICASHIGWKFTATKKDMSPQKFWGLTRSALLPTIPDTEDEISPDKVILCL
Sequence of CRBN-DDB1 (Q16531 whole entry partner): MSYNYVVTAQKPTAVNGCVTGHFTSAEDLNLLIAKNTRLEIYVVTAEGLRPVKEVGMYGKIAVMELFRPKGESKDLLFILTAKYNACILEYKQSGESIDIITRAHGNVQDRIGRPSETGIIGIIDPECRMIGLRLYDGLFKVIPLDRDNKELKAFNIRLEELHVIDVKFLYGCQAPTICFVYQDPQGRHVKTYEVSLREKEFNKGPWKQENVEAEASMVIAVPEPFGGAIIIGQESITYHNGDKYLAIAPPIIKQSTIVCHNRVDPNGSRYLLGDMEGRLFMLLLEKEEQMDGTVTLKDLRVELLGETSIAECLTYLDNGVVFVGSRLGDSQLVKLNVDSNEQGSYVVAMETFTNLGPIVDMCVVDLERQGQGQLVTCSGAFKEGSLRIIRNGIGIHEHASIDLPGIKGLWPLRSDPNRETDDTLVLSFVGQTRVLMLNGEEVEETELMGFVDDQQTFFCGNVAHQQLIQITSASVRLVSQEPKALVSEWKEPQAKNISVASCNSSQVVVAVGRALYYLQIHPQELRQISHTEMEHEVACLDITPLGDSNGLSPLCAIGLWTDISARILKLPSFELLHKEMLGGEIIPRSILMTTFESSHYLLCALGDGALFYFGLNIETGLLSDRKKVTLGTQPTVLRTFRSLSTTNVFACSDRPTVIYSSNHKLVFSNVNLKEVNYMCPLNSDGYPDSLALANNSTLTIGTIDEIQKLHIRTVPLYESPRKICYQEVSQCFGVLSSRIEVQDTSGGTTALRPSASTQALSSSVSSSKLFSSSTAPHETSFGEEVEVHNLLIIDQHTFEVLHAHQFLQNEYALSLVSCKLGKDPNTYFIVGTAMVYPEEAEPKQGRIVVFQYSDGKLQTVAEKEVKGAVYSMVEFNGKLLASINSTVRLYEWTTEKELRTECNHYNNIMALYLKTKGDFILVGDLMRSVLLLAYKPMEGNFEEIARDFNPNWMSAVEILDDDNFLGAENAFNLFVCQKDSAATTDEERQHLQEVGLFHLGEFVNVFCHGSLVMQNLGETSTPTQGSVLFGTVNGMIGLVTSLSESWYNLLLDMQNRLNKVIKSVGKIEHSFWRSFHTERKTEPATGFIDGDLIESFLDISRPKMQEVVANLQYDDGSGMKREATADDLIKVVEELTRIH
T1 sequence (P15170 whole entry): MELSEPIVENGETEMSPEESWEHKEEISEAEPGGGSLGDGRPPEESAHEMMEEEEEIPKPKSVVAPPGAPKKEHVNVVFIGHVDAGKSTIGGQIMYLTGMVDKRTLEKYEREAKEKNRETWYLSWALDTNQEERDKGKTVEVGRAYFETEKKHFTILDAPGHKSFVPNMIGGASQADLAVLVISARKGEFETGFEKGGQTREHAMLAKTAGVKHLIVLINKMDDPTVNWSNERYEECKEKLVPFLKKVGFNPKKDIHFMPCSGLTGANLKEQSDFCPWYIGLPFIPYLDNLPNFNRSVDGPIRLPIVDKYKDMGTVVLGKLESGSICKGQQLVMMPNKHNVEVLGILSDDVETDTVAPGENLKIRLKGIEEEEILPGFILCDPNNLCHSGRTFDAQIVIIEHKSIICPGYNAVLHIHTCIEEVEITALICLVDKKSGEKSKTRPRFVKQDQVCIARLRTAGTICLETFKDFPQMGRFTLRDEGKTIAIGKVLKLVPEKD
T1 sequence (Q96SW2 whole entry): as the sequence (Q96SW2 whole entry) above
T1 sequence (Q16531 2-1140 partner limits assumed): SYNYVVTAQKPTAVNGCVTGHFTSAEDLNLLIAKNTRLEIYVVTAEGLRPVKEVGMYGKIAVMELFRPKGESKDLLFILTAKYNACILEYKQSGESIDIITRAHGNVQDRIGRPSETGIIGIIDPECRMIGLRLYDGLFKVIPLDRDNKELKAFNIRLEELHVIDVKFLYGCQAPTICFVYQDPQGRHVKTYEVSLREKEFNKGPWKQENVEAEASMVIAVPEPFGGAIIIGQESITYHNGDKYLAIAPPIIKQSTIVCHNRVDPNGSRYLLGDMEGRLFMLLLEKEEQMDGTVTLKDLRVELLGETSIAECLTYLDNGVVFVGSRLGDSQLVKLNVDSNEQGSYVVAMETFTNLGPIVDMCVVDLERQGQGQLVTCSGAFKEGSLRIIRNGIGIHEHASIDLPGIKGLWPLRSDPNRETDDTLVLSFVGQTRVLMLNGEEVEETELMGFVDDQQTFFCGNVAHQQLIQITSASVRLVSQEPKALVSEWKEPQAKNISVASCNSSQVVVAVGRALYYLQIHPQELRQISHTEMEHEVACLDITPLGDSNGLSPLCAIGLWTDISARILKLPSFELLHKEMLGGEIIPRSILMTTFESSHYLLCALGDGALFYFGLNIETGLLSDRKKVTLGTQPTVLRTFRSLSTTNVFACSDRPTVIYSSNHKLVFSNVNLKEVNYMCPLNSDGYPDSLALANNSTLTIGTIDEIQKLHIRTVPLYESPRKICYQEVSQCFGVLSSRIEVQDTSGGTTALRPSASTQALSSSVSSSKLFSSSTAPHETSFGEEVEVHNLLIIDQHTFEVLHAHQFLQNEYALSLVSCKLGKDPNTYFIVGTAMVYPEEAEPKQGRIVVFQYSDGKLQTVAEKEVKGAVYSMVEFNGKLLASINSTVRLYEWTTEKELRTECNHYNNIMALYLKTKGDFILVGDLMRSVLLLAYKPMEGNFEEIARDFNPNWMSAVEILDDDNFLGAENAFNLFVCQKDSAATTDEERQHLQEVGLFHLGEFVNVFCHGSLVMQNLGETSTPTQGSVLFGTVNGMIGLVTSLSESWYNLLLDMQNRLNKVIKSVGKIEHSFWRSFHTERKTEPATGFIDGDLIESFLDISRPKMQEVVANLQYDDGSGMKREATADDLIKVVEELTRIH

As usually defined, the IC50 is the concentration that gives 50% inhibition. Usually DC50 stands for the concentration giving 50% degradation. As to `CO[C@H]1CC[C@H](NC(=O)OC2CN(c3cc(F)c(C4CCC(=O)NC4=O)c(F)c3)C2)CC1` (stereo partly drawn) [Compound 133, 1-(4-(2,6-dioxopiperidin-3-yl)-3,5-difluorophenyl)azetidin-3-yl ((1R,4R)-4-methoxycyclohexyl)carbamate], the IC50 at CRBN-DDB1 lay in the range of 0.1 to 1 µM. Further, the DC50 on GSPT1 fell in the range of 0.03 to 0.3 µM.

In the case of `O=C1CCC(c2c(F)cc(N3CC(OC(=O)NC4CCCCCC4)C3)cc2F)C(=O)N1` (centres unmarked) [Compound 134, 1-(4-(2,6-dioxopiperidin-3-yl)-3,5-difluorophenyl)azetidin-3-yl cycloheptylcarbamate], the IC50 on CRBN-DDB1 is not above 0.1 µM. The 50% degradation concentration (DC50) at GSPT1 was not above 0.03 µM.

Turning to `CC1(NC(=O)OC2CN(c3cc(F)c(C4CCC(=O)NC4=O)c(F)c3)C2)CCCCC1` (centres unmarked) [Compound 135, 1-(4-(2,6-dioxopiperidin-3-yl)-3,5-difluorophenyl)azetidin-3-yl (1-methylcyclohexyl)carbamate], the IC50 on CRBN-DDB1 is not above 0.1 µM. Also, at GSPT1, the DC50 is not above 0.03 µM.

With `O=C1CCC(c2c(F)cc(N3CC(OC(=O)NC4Cc5ccccc5C4)C3)cc2F)C(=O)N1` (centres unmarked) [Compound 136, 1-(4-(2,6-dioxopiperidin-3-yl)-3,5-difluorophenyl)azetidin-3-yl (2,3-dihydro-1H-inden-2-yl)carbamate], the IC50 at CRBN-DDB1 is not above 0.1 µM. The DC50 on GSPT1 is not above 0.03 µM.

For the molecule `O=C1CCC(c2c(F)cc(N3CC(OC(=O)NCc4ccccc4)C3)cc2F)C(=O)N1` (centres unmarked) [Compound 137, 1-(4-(2,6-dioxopiperidin-3-yl)-3,5-difluorophenyl)azetidin-3-yl benzylcarbamate], the half-maximal inhibitory concentration (IC50) at CRBN-DDB1 is not above 0.1 µM. The DC50 at GSPT1 lay in the range of 0.03 to 0.3 µM.

Consider `O=C1CCC(c2c(F)cc(N3CC(OC(=O)NC4CC5(CCC5)C4)C3)cc2F)C(=O)N1` (centres unmarked) [Compound 138, 1-(4-(2,6-dioxopiperidin-3-yl)-3,5-difluorophenyl)azetidin-3-yl spiro[3.3]heptan-2-ylcarbamate], for which, at CRBN-DDB1, the IC50 was not above 0.1 µM. The DC50 on GSPT1 was not above 0.03 µM.

On to `O=C1CCC(c2c(F)cc(N3CC(OC(=O)NCC4CCCC4)C3)cc2F)C(=O)N1` (centres unmarked) [Compound 139, 1-(4-(2,6-dioxopiperidin-3-yl)-3,5-difluorophenyl)azetidin-3-yl (cyclopentylmethyl)carbamate], for which the 50% inhibitory concentration (IC50) on CRBN-DDB1 was not above 0.1 µM. In addition, the half-maximal degradation concentration (DC50) on GSPT1 is not above 0.03 µM.

Consider `O=C1CCC(c2c(F)cc(N3CC(OC(=O)N[C@@H]4CC5CCC4C5)C3)cc2F)C(=O)N1` (stereo partly drawn) [Compound 140, 1-(4-(2,6-dioxopiperidin-3-yl)-3,5-difluorophenyl)azetidin-3-yl(2R)-bicyclo[2.2.1]heptan-2-ylcarbamate], for which the 50% inhibitory concentration (IC50) at CRBN-DDB1 was not above 0.1 µM. For the same molecule, the DC50 on GSPT1 lay in the range of 0.03 to 0.3 µM.

With `O=C1CCC(c2c(F)cc(N3CC(OC(=O)NCC4COC4)C3)cc2F)C(=O)N1` (centres unmarked) [Compound 141, 1-(4-(2,6-dioxopiperidin-3-yl)-3,5-difluorophenyl) azetidin-3-yl (oxetan-3-ylmethyl)carbamate], on CRBN-DDB1, the IC50 was not above 0.1 µM. Also, at GSPT1, the DC50 was more than 0.3 µM.

As for `O=C1CCC(c2c(F)cc(N3CC(OC(=O)N4CCC(F)(F)CC4)C3)cc2F)C(=O)N1` (centres unmarked) [Compound 142, 1-(4-(2,6-dioxopiperidin-3-yl)-3,5-difluorophenyl)azetidin-3-yl 4,4-difluoropiperidine-1-carboxylate], at CRBN-DDB1, the IC50 lay in the range of 0.1 to 1 µM. Besides, at GSPT1, the 50% degradation concentration (DC50) is more than 0.3 µM.

For the molecule `O=C1CCC(c2c(F)cc(N3CC(OC(=O)N4CCCCC4)C3)cc2F)C(=O)N1` (centres unmarked) [Compound 143, 1-(4-(2,6-dioxopiperidin-3-yl)-3,5-difluorophenyl)azetidin-3-yl piperidine-1-carboxylate], the concentration for half-maximal inhibition (IC50) on CRBN-DDB1 fell in the range of 0.1 to 1 µM. On GSPT1, the DC50 was more than 0.3 µM.

Take `O=C1CCC(c2c(F)cc(N3CC(OC(=O)N4CCCC4)C3)cc2F)C(=O)N1` (centres unmarked) [Compound 144, 1-(4-(2,6-dioxopiperidin-3-yl)-3,5-difluorophenyl)azetidin-3-yl pyrrolidine-1-carboxylate]: the IC50 on CRBN-DDB1 is 0.1 to 1 µM. Also, the 50% degradation concentration (DC50) on GSPT1 is more than 0.3 µM.

Turning to `Cc1ccc(N(C)C(=O)OC2CN(c3cc(F)c(C4CCC(=O)NC4=O)c(F)c3)C2)cc1Cl` (centres unmarked) [Compound 145, 1-(4-(2,6-dioxopiperidin-3-yl)-3,5-difluorophenyl)azetidin-3-yl(3-chloro-4-methylphenyl)(methyl) carbamate], at CRBN-DDB1, the IC50 is not above 0.1 µM. In addition, the DC50 at GSPT1 lay within 0.03 to 0.3 µM.
